Assay results reported in patent US20170275275A1, “BENZENESULFONAMIDES USEFUL AS SODIUM CHANNEL INHIBITORS” (PFIZER INC., priority 2014, published 2017).
pIC50: −log10 of the molar value. Where a name gives a salt, the structure may show the parent alone.

Legend:
[1] = target: T1, Nav1.7 (or SCN9A) channel (Homo sapiens, UniProt Q15858); test: Nav1.7 (hSCN9A) channel block, PatchXpress (PX) whole-cell electrophysiology in stably transfected HEK cells; format: cell-based; conditions: estimated IC50 from single point electrophysiology data; PatchXpress platform; HEK cells expressing hSCN9A; clamped at V1/2 of inactivation; read-out: Nav1.7 EIC50
T1 construct: expressed in transfected cells
Description: The ability of the compounds of formula (I) to block the Nav1.7 (or SCN9A) channel was measured using the assay described below.
Human Embryonic Kidney (HEK) cells were transfected with an hSCN9A construct using lipofectamine reagent (Invitrogen), using standard techniques. Cells stably expressing the hSCN9A constructs were identified by their resistance to G-418 (400 μg/ml). Clones were screened for expression using the whole-cell voltage-clamp technique.
HEK cells stably transfected with hSCN9A were maintained in DMEM medium supplemented with 10% heat-inactivated fetal bovine serum and 400 μg/ml G-418 in an incubator at 37° C. with a humidified atmosphere of 10% CO2. For HTS, cells were harvested from flasks by trypsinization and replated in an appropriate multi-well plate (typically 96 or 384 wells/plate) such that confluence would be achieved within 24 hours of plating. Cells were typically used for electrophysiological experiments within 24 to 72 hours after plating.
For conventional whole-cell voltage clamp experiments cells were removed from the culture flask by brief trypsinization and re-plated at low density onto glass cover slips. Cover slips containing HEK cells expressing hSCN9A were placed in a bath on the stage of an inverted microscope and perfused (approximately 1 ml/minutes) with extracellular solution of the following composition: 138 mM NaCl, 2 mM CaCl2, 5.4 mM KCl, 1 mM MgCl2, 10 mM glucose, and 10 mM HEPES, pH 7.4, with NaOH. […] The osmolarity of the extracellular and intracellular solutions was 300 mOsm/kg and 295 mOsm/kg, respectively. All recordings were made at room temperature (22-24° C.) using AXOPATCH 200B amplifiers and PCLAMP software (Axon Instruments, Burlingame, Calif.). hSCN9A currents in HEK cells were measured using the whole-cell configuration of the patch-clamp technique (Hamill et al., 1981). Uncompensated series resistance was typically 2 to 5 mega ohms and >85% series resistance compensation was routinely achieved. […] Current records were acquired at 20 to 50 KHz and filtered at 5 to 10 KHz.
HEK cells stably transfected with hSCN9A were viewed under Hoffman contrast optics and placed in front of an array of flow pipes emitting either control or compound-containing extracellular solutions.
The voltage-dependence of inactivation was determined by applying a series of depolarizing prepulses (8 sec long in 10 mV increments) from a negative holding potential. The voltage was then immediately stepped to 0 mV to assess the magnitude of the sodium current. Currents elicited at 0 mV were plotted as a function of prepulse potential to allow estimation of the voltage at which 50% of the channels were inactivated (midpoint of inactivation or V1/2). Compounds were tested for their ability to inhibit hSCN9A sodium channels by activating the channel with a 20 msec voltage step […] to 0 mV following an 8 second conditioning prepulse to the empirically determined V1/2. Compound effect (% inhibition) was determined by difference in current amplitude before and after application of test compounds. For ease of comparison, “estimated IC-50” (EIC50) values were calculated from single point electrophysiology data by the following equation, (tested concentration, nM)×(100-% inhibition/% inhibition). Inhibition values <20% and >80% were excluded from the calculation.
Electrophysiological assays were conducted with PatchXpress 7000 hardware and associated software (Molecular Devices Corp). All assay buffers and solutions were identical to those used in conventional whole-cell voltage clamp experiments described above. hSCN9A cells were grown as above to 50%-80% confluency and harvested by trypsinization. Trypsinized cells were washed and resuspended in extracellular buffer at a concentration of 1×10^6 cells/ml. The onboard liquid handling facility of the PatchXpress was used for dispensing cells and application of test compounds.

[2] = Aqueous solubility, shake-flask method; format: physicochemical; conditions: aqueous buffer, thermodynamic from solid, pH 7.0, shaken 18 hours at room temperature
Description: Aqueous solubility data were generated via a “shake-flask” method where an excess of compound was added to a buffer (typically phosphate buffered saline at pH 7.4) and shaken for a period of 18 hours at room temperature. After this time any excess solid was removed by double centrifugation to obtain a saturated aqueous solution. The amount of compound solubilised was quantified by HPLC-UV or LC-MS against a standard calibration curve.
The solubility data generated are set out below. Where a greater than figure is quoted, all available compound was solubilised and saturation was not achieved in the conditions employed.

T1 sequence (Q15858 whole entry): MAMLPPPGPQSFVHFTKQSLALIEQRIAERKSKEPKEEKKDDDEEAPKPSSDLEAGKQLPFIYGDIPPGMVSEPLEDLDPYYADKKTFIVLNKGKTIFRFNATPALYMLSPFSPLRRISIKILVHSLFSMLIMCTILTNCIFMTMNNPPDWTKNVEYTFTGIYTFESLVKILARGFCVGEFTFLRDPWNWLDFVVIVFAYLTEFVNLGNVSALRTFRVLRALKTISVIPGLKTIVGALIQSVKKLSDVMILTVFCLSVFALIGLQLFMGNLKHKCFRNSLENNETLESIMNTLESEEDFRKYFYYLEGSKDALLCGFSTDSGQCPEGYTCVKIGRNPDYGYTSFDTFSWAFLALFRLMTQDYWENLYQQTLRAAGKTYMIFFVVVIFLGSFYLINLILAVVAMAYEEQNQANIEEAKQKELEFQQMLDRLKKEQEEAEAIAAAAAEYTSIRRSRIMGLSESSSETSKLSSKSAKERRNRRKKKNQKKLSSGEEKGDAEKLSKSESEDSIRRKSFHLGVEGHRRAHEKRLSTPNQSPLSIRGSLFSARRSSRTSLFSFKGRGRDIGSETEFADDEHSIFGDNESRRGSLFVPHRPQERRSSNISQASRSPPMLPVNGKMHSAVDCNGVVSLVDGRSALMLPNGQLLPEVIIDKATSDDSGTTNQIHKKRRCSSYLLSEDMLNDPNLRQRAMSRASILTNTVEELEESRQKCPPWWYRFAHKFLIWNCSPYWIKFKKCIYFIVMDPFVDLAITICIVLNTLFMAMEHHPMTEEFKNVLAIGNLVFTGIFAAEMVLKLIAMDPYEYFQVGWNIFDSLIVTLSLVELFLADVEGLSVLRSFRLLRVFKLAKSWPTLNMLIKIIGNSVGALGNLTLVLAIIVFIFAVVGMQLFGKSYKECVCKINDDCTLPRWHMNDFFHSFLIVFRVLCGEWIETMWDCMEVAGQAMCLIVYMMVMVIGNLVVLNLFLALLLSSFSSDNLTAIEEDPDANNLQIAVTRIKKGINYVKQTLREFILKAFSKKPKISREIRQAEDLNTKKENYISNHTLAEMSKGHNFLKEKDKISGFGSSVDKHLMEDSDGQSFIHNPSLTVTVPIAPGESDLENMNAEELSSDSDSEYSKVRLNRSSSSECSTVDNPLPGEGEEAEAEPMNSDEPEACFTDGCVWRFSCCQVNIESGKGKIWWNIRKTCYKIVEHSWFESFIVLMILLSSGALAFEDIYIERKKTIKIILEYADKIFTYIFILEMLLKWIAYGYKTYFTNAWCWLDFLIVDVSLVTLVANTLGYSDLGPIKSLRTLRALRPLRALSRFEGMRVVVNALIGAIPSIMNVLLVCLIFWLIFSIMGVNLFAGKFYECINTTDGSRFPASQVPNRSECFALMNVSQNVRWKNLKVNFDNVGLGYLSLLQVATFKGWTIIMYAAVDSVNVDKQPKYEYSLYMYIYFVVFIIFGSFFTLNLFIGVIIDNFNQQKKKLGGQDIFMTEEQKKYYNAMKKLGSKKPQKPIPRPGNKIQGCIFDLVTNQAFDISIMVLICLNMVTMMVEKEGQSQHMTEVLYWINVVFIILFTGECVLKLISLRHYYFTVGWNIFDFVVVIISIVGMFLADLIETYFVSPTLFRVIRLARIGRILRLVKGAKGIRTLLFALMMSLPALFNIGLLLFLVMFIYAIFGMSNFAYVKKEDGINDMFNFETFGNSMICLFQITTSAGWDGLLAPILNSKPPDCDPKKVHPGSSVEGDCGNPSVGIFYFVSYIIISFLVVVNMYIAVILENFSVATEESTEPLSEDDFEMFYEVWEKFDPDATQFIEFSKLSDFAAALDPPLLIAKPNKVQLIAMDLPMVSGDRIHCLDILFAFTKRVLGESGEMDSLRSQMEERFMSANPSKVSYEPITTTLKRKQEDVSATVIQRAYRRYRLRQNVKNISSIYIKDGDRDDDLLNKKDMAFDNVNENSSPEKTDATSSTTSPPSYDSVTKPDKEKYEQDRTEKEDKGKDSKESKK

**Q.** What does the source list for NCc1cc(-c2cc(-c3cccc(C(F)(F)F)c3)ccc2Oc2cc(F)c(S(=O)(=O)Nc3cscn3)cc2Cl)ccn1 [Example 29, 4-({3-[2-(aminomethyl)pyridin-4-yl]-3′-(trifluoromethyl)biphenyl-4-yl}oxy)-5-chloro-2-fluoro-N-(1,3-thiazol-4-yl)benzenesulfonamide dihydrochloride salt]?
**A.** pIC50 [1]: 8.54; solubility at 18 h [2]: < 0.5 µg/mL
